# Test results from ChEMBL document CHEMBL1155053, “Discovery of new Gram-negative antivirulence drugs: structure and properties of novel E. coli WaaC inhibitors” (Bioorg Med Chem Lett, 2008).
# Test: Inhibition of Escherichia coli heptosyltransferase Waac
row,Compound,IC50
1,CC1=NN(c2ccc(C(=O)O)cc2)C(=O)/C1=C\c1ccc(-c2ccccc2)o1,55 µM
2,CC1=NN(c2cccc(C)c2)C(=O)/C1=C\c1ccc(-c2cccc(C(=O)O)c2)o1 (mixture of isomers),> 100 µM
3,COC(=O)c1cccc(-c2ccc(/C=C3\C(=O)N(c4cccc(C(=O)O)c4)N=C3C)o2)c1 (mixture of isomers),49 µM
4,CC(=O)c1cccc(-c2ccc(/C=C3\C(=O)N(c4cccc(C(=O)O)c4)N=C3C)o2)c1 (mixture of isomers),15 µM
5,CC1=NN(c2ccccc2)C(=O)/C1=C\c1ccc(-c2ccc(Cl)c(C(=O)O)c2)o1 (mixture of isomers),> 100 µM
6,COC(=O)c1cccc(N2N=C(C)/C(=C/c3ccc(-c4cccc(C(=O)O)c4)o3)C2=O)c1 (mixture of isomers),> 100 µM

# Now from value to compound:
row,IC50,Compound
1,3 µM,CC1=NN(c2cccc(C(=O)O)c2)C(=O)/C1=C\c1ccc(-c2ccc(C(=O)O)cc2)o1
2,3.1 µM,CC1=NN(c2ccc(C(=O)O)cc2)C(=O)/C1=C\c1ccc(-c2ccc(Cl)c(C(=O)O)c2)o1
3,31 µM,CC1=NN(c2cccc(C(=O)O)c2)C(=O)/C1=C\c1ccc(-c2ccc(C(=O)O)c(C)c2)o1
4,51 µM,CC1=NN(c2ccc(C(=O)O)cc2)C(=O)/C1=C\c1ccc(-c2ccc(C(=O)O)cc2)o1 (mixture of isomers)
5,18 µM,CC1=NN(c2ccc(C(=O)O)cc2)C(=O)/C1=C\c1ccc(-c2cccc(C(N)=O)c2)o1 (mixture of isomers)
6,> 100 µM,CC1=NN(c2cccc(C(=O)O)c2)C(=O)/C1=C\c1ccc(-c2ccc(S(N)(=O)=O)cc2)o1 (mixture of isomers)
7,2 µM,CC1=NN(c2cccc(C(=O)O)c2)C(=O)/C1=C\c1ccc(-c2cccc(C(=O)O)c2)o1 (mixture of isomers)
8,1 µM,CC1=NN(c2cccc(C(=O)O)c2)C(=O)/C1=C\c1ccc(-c2ccc(Cl)c(C(=O)O)c2)o1 (mixture of isomers)
